Reference: patent US8501755B2, “Tetrahydropyridothienopyrimidine compounds and methods of use thereof” (Bayer Intellectual Property GmbH, priority 2006, dated 2013)

Key:
Format in all cases: cell-based
A431 cells = experiment: In vitro tumor cell proliferation assay (Cell Titer-Glo) in A431 cells; details: Homo sapiens, A-431, 72 h, A431 human epidermoid carcinoma overexpressing HER1; 72 hours exposure; read-out: IC50, activities in A431 cell lines
Summary of the method: (§1)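 Viability after 72 h drug exposure at 37 °C was read as CellTiter-Glo ATP luminescence, giving IC50. Cells (2.5×10^3/well, RPMI + 10% FBS) were compound-treated one day post-seeding, 0.1% DMSO final: A431 overexpresses HER1, N87 overexpresses HER2 and HER1.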

N87 = experiment: In vitro tumor cell proliferation assay (Cell Titer-Glo) in N87 cells; details: N87 human gastric carcinoma overexpressing HER2 and HER1; 72 hours exposure; read-out: IC50, activities in N87 cell lines
Summary of the method: as §1

H1975 cells = experiment: In vitro tumor cell proliferation assay (Cell Titer-Glo) in H1975 cells; details: NCI-H1975; H1975 human NSCLC expressing mutant HER1 (L858R,T790M); 72 hours exposure; read-out: IC50, activities in H 1975 cell lines
Summary of the method: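 After 72 h compound exposure at 37° C (top 10 uM down to 64 pM, 0.1% DMSO), viability of EGFR L858R/T790M-mutant H1975 cells was read as ATP luminescence.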

SMILES | IC50 (A431 cells) [µM] | IC50 (N87) [µM] | IC50 (H1975 cells) [µM]
CC1CN(C/C=C/C(=O)N2CCc3c(sc4ncnc(Nc5ccc(OCc6ccccn6)c(Cl)c5)c34)C2)CC(C)O1 (stereo not drawn) [Example 53, N-[3-chloro-4-(pyridin-2-ylmethoxy)phenyl]-7-((2E)-4-(2,6-dimethylmorpholin-4-yl)but-2-enoyl]-5,6,7,8-tetrahydropyrido [4′,3′:4,5]thieno[2,3-d]pyrimidin-4-amine] | 1 to 10 | < 0.2 | 1 to 10
O=C(/C=C/CN1CCN(CCO)CC1)N1CCc2c(sc3ncnc(Nc4ccc(OCc5ccccn5)c(Cl)c4)c23)C1 [Example 62, 2-(4-{(2E)-4-[4-{[3-chloro-4-(pyridin-2-ylmethoxy)phenyl]amino}-5,8-dihydropyrido [4′,3′:4,5]thieno[2,3-d]pyrimidin-7(6H)-yl]-4-oxobut-2-en-1-yl}piperazin-1-yl)ethanol] | 0.2 to 1 | < 0.2 | 0.2 to 1
CC(C)N(C)C/C=C/C(=O)N1CCc2c(sc3ncnc(Nc4ccc(OCc5ccccn5)c(Cl)c4)c23)C1 [Example 63, N-[3-chloro-4-(pyridin-2-ylmethoxy)phenyl]-7-{(2E)-4-[isopropyl(methyl)amino]but-2-enoyl}-5,6,7,8-tetrahydropyrido [4′,3′:4,5]thieno[2,3-d]pyrimidin-4-amine] | 0.2 to 1 | < 0.2 | 0.2 to 1
CC1CCCCN1C/C=C/C(=O)N1CCc2c(sc3ncnc(Nc4ccc(OCc5ccccn5)c(Cl)c4)c23)C1 (stereo not drawn) [Example 64] | 0.2 to 1 | < 0.2 | 0.2 to 1
CN(C/C=C/C(=O)N1CCc2c(sc3ncnc(Nc4ccc(OCc5ccccn5)c(Cl)c4)c23)C1)C(C)(C)C [Example 65, 7-{(2E)-4-[tert-butyl(methyl)amino]but-2-enoyl}-N-[3-chloro-4-(pyridin-2-ylmethoxy)phenyl]-5,6,7,8-tetrahydropyrido [4′,3′:4,5]thieno[2,3-d]pyrimidin-4-amine] | 0.2 to 1 | < 0.2 | < 0.2
CC(C)CN(C)C/C=C/C(=O)N1CCc2c(sc3ncnc(Nc4ccc(OCc5ccccn5)c(Cl)c4)c23)C1 [Example 66, N-[3-chloro-4-(pyridin-2-ylmethoxy)phenyl]-7-{(2E)-4-[isobutyl(methyl)amino]but-2-enoyl}-5,6,7,8-tetrahydropyrido [4′,3′:4,5]thieno[2,3-d]pyrimidin-4-amine] | 0.2 to 1 | < 0.2 | 0.2 to 1
CC1CCCN(C/C=C/C(=O)N2CCc3c(sc4ncnc(Nc5ccc(OCc6ccccn6)c(Cl)c5)c34)C2)C1 (stereo not drawn) [Example 67, N-[3-chloro-4-(pyridin-2-ylmethoxy)phenyl]-7-[(2E)-4-(3-methylpiperidin-1-yl)but-2-enoyl]-5,6,7,8-tetrahydropyrido [4′,3′:4,5]thleno[2,3-d]pyrimidin-4-amine] | 0.2 to 1 | < 0.2 | 0.2 to 1
O=C(/C=C/CN1CCCCCC1)N1CCc2c(sc3ncnc(Nc4ccc(OCc5ccccn5)c(Cl)c4)c23)C1 [Example 68, 7-[(2E)-4-azepan-1-ylbut-2-enoyl]-N-[3-chloro-4-(pyridin-2-ylmethoxy)phenyl]-5,6,7,8-tetrahydropyrido [4′,3′:4,5]thieno[2,3-d]pyrimidin-4-amine] | 0.2 to 1 | < 0.2 | 0.2 to 1
CCN(C/C=C/C(=O)N1CCc2c(sc3ncnc(Nc4ccc(OCc5ccccn5)c(Cl)c4)c23)C1)C(C)C [Example 70, N-[3-chloro-4-(pyridin-2-ylmethoxy)phenyl]-7-{(2E)-4-[ethyl(isopropyl)amino]but-2-enoyl}-5,6,7,8-tetrahydropyrido [4′,3′:4,5]thieno[2,3-d]pyrimidin-4-amine] | 1 to 10 | < 0.2 | < 0.2
CCN(CC)C/C=C/C(=O)N1CCc2c(sc3ncnc(Nc4ccc(OCc5cnccn5)c(Cl)c4)c23)C1 [Example 72, N-[3-chloro-4-(pyrazin-2-ylmethoxy)phenyl]-7-[(2E)-4-(diethylamino)but-2-enoyl]-5,6,7,8-tetrahydropyrido [4′,3′:4,5]thieno[2,3-d]pyrimidin-4-amine] | 1 to 10 | < 0.2 | 0.2 to 1
CCN(CC)C/C=C/C(=O)N1CCc2c(sc3ncnc(Nc4ccc(OCc5cccc(C)n5)c(Cl)c4)c23)C1 [Example 73, N-{3-chloro-4-[(6-methylpyridin-2-yl)methoxy]phenyl}-7-[(2E)-4-(diethylamino)but-2-enoyl]-5,6,7,8-tetrahydropyrido [4′,3′:4,5]thieno[2,3-d]pyrimidin-4-amine] | 1 to 10 | < 0.2 | 1 to 10
Cc1cccc(COc2ccc(Nc3ncnc4sc5c(c34)CCN(C(=O)/C=C/CN(C)C)C5)cc2Cl)n1 [Example 74, N-{3-chloro-4-[(6-methylpyridin-2-yl)methoxy]phenyl}-7-[(2E)-4-(dimethylamino)but-2-enoyl]-5,6,7,8-tetrahydropyrido [4′,3′:4,5]thieno[2,3-d]pyrimidin-4-amine] | 1 to 10 | < 0.2 | 1 to 10
Cc1cccc(COc2ccc(Nc3ncnc4sc5c(c34)CCN(C(=O)/C=C/CN3CCCCC3)C5)cc2Cl)n1 [Example 75, N-{3-chloro-4-[(6-methylpyridin-2-yl)methoxy]phenyl}-7-[(2E)-4-piperidin-1-ylbut-2-enoyl]-5,6,7,8-tetrahydropyrido [4′,3′:4,5]thieno[2,3-d]pyrimidin-4-amine] | 1 to 10 | < 0.2 | 0.2 to 1
CCN(C)C/C=C/C(=O)N1CCc2c(sc3ncnc(Nc4ccc(OCc5cccc(C)n5)c(Cl)c4)c23)C1 [Example 76, N-{3-chloro-4-[(6-methylpyridin-2-yl)methoxy]phenyl}-7-{(2E)-4-[ethyl(methyl)amino]but-2-enoyl}-5,6,7,8-tetrahydropyrido [4′,3′:4,5]thieno[2.3-d]pyrimidin-4-amine] | 1 to 10 | < 0.2 | 1 to 10
Cc1cccc(COc2ccc(Nc3ncnc4sc5c(c34)CCN(C(=O)/C=C/CN(C)C(C)C)C5)cc2Cl)n1 [Example 77, N-{3-chloro-4-[(6-methylpyridin-2-yl)methoxy]phenyl}-7-{(2E)-4-[isopropyl(methyl)amino]but-2-enoyl}-5,6,7,8-tetrahydropyrido [4′,3′:4,5]thieno[2,3-d]pyrimidin-4-amine] | 1 to 10 | < 0.2 | 0.2 to 1

The next lines start with the values.

IC50 (A431 cells) [µM] | IC50 (N87) [µM] | IC50 (H1975 cells) [µM] | SMILES
0.2 to 1 | < 0.2 | 0.2 to 1 | CN(C/C=C/C(=O)N1CCc2c(sc3ncnc(Nc4ccc(F)c(Cl)c4)c23)C1)C1CCCCC1 [Example 54, N-(3-chloro-4-fluorophenyl)-7-{(2E)-4-[cyclohexyl(methyl)amino]but-2-enoyl}-5,6,7,8-tetrahydropyrido [4′,3′:4,5]thieno[2,3-d]pyrimidin-4-amine]
0.2 to 1 | < 0.2 | 0.2 to 1 | CC1CCCCN1C/C=C/C(=O)N1CCc2c(sc3ncnc(Nc4ccc(F)c(Cl)c4)c23)C1 (stereo not drawn) [Example 56, N-(3-chloro-4-fluorophenyl)-7-[(2E)-4-(2-methylpiperidin-1-yl)but-2-enoyl]-5,6,7,8-tetrahydropyrido [4′,3′:4,5]thieno[2,3-d]pyrimidin-4-amine]
1 to 10 | < 0.2 | 0.2 to 1 | O=C(/C=C/CN1CCC(CCO)CC1)N1CCc2c(sc3ncnc(Nc4ccc(F)c(Cl)c4)c23)C1 [Example 57, 2-{1-[(2E)-4-{4-[(3-chloro-4-fluorophenyl)amino]-5,8-dihydropyrido [4′,3′:4,5]thieno[2,3-d]pyrimidin-7(6H)-yl}-4-oxobut-2-en-1-yl]piperidin-4-yl}ethanol]
1 to 10 | < 0.2 | 1 to 10 | O=C(/C=C/CN1CCC(O)CC1)N1CCc2c(sc3ncnc(Nc4ccc(F)c(Cl)c4)c23)C1 [Example 58, 1-[(2E)-4-{4-[(3-chloro-4-fluorophenyl)amino]-5,8-dihydropyrido [4′,3′:4,5]thieno[2,3-d]pyrimidin-7(6H)-yl}-4-oxobut-2-en-1-yl]piperidin-4-ol]
< 0.2 | < 0.2 | < 0.2 | CC1CCCN1C/C=C/C(=O)N1CCc2c(sc3ncnc(Nc4ccc(F)c(Cl)c4)c23)C1 (stereo not drawn) [Example 59, N-(3-chloro-4-fluorophenyl)-7-[(2E)-4-(2-methylpyrrolidin-1-yl)but-2-enoyl]-5,6,7,8-tetrahydropyrido [4′,3′:4,5]thieno[2,3-d]pyrimidin-4-amine]
0.2 to 1 | < 0.2 | 0.2 to 1 | CC1CCCC(C)N1C/C=C/C(=O)N1CCc2c(sc3ncnc(Nc4ccc(F)c(Cl)c4)c23)C1 (stereo not drawn) [Example 60, N-(3-chloro-4-fluorophenyl)-7-[(2E)-4-(2,6-dimethylpiperidin-1-yl)but-2-enoyl]-5,6,7,8-tetrahydropyrido [4′,3′:4,5]thieno[2,3-d]pyrimidin-4-amine]
0.2 to 1 | < 0.2 | 0.2 to 1 | CCN(C/C=C/C(=O)N1CCc2c(sc3ncnc(Nc4ccc(F)c(Cl)c4)c23)C1)C1CCCCC1 [Example 61, N-(3-chloro-4-fluorophenyl)-7-{(2E)-4-[cyclohexyl(ethyl)amino]but-2-enoyl}-5,6,7,8-tetrahydropyrido [4′,3′:4,5]thieno[2,3-d]pyrimidin-4-amine]
0.2 to 1 | < 0.2 | 0.2 to 1 | O=C(/C=C/CN1CCCC(CO)C1)N1CCc2c(sc3ncnc(Nc4ccc(F)c(Cl)c4)c23)C1 (stereo not drawn) [Example 69, {1-[(2E)-4-{4-[(3-chloro-4-fluorophenyl)amino]-5,8-dihydropyrido [4′,3′:4,5]thieno[2,3-d]pyrimidin-7(6H)-yl}-4-oxobut-2-en-1-yl]piperidin-3-yl}methanol]
